“And” between values parts separate entries of the source, which are not always exact repeats. Identical values can stand only once.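 How tested: cells in 96-well plates exposed to compound for 48 hours at five concentrations. GI50 = concentration required for 50% inhibition of growth.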 The source made the active and inactive calls. Cut-off read from the data, not from the text of the source: active = GI50 up to about 1.1 µM and inactive = higher.
Columns and labels:
Test in all cases: growth of human tumour cells (NCI), 48 h
KM12 = system: KM12
A549 = system: A549
MOLT-4 = system: MOLT-4
SR = system: SR
OVCAR-3 = system: OVCAR-3
SNB-19 = system: SNB-19
LOX IMVI = system: LOX IMVI
NCI-H460 = system: NCI-H460
SNB-75 = system: SNB-75
IGROV-1 = system: IGROV-1
OVCAR-5 = system: OVCAR-5
K562 = system: K562
U-251 = system: U-251
SK-MEL-28 = system: SK-MEL-28
HL-60 = system: HL-60

Measured: GI50

O=c1[nH]cnc2c1nnn2C1C=C(CO)C(O)C1O (stereo not given)
inactive: KM12 > 100 µM | A549 > 100 µM | MOLT-4 > 100 µM | SR > 100 µM | OVCAR-3 > 100 µM | SNB-19 > 100 µM | LOX IMVI 30.8 µM | NCI-H460 > 100 µM | SNB-75 > 100 µM | IGROV-1 > 100 µM | OVCAR-5 > 100 µM | K562 > 100 µM | U-251 > 100 µM | SK-MEL-28 > 100 µM

C[C@@H]1CC[C@@]2(C)OC(c3ccccc3)[C@H](CO)N2C1=O (stereo not given in full)
inactive: KM12 > 100 µM | A549 > 100 µM | SR > 100 µM | OVCAR-3 > 100 µM | SNB-19 > 100 µM | LOX IMVI > 100 µM | NCI-H460 > 100 µM | SNB-75 > 100 µM | IGROV-1 > 100 µM | OVCAR-5 > 100 µM | K562 > 100 µM | U-251 > 100 µM | SK-MEL-28 > 100 µM

O=c1ncccn1[C@@H]1O[C@H](CO)[C@@H](O)[C@@H]1F
inactive: A549 > 100 µM | MOLT-4 > 100 µM | SR > 68.2 µM | OVCAR-3 > 100 µM | SNB-19 > 100 µM | LOX IMVI > 100 µM and > 59.2 µM | SNB-75 > 100 µM and > 50.9 µM | HL-60 > 100 µM | IGROV-1 > 100 µM | OVCAR-5 > 100 µM | U-251 > 100 µM | SK-MEL-28 > 64 µM

COc1cc2c(cc1OC)[C@H]1C(COC(=O)c3ccccc3)CS/C(=N/c3ccccc3)N1CC2 (stereo not given in full)
inactive: KM12 > 100 µM | A549 82.6 µM | MOLT-4 2.91 µM | SR 5.71 µM | OVCAR-3 > 100 µM | SNB-19 21 µM | LOX IMVI 92.9 µM | NCI-H460 91.8 µM | SNB-75 27.7 µM | HL-60 5.31 µM | IGROV-1 > 100 µM | OVCAR-5 3.54 µM | U-251 24.3 µM | SK-MEL-28 > 100 µM

C=CC1(C(=O)O)CCC(C(C)(C)C)CC1 (stereo not given)
inactive: KM12 > 100 µM | A549 > 100 µM | MOLT-4 > 100 µM | SR > 100 µM | OVCAR-3 > 100 µM | SNB-19 > 100 µM | NCI-H460 > 100 µM | SNB-75 > 100 µM | HL-60 > 100 µM | IGROV-1 > 100 µM | OVCAR-5 > 100 µM | K562 > 100 µM | U-251 > 100 µM

CCCC(=O)c1c(NOC2OC(COC(C)=O)C(OC(C)=O)C(OC(C)=O)C2OC(C)=O)nc(OC)n(C)c1=O (stereo not given)
inactive: KM12 > 100 µM | A549 > 100 µM | MOLT-4 > 100 µM | SR > 100 µM | SNB-19 > 100 µM | LOX IMVI > 100 µM | NCI-H460 > 100 µM | SNB-75 > 100 µM | IGROV-1 > 100 µM | OVCAR-5 > 100 µM | K562 > 100 µM | U-251 > 100 µM | SK-MEL-28 > 100 µM

Cc1cc2c(c(C#N)c1C)NC(=O)CCC2=O
inactive: KM12 > 100 µM | A549 > 100 µM | MOLT-4 > 100 µM | SR > 100 µM | OVCAR-3 > 100 µM | NCI-H460 > 100 µM | SNB-75 > 100 µM | HL-60 > 100 µM | IGROV-1 > 100 µM | K562 > 100 µM | U-251 > 100 µM | SK-MEL-28 > 100 µM

N#CC(c1ccccc1)c1nc2ccc(N)cc2[n+]([O-])c1C(C#N)c1ccccc1 (stereo not given)
inactive: KM12 60.7 µM | A549 57.8 µM | MOLT-4 53.7 µM | SR 23.8 µM | OVCAR-3 91.8 µM | SNB-19 > 100 µM | LOX IMVI 64.9 µM | NCI-H460 73.3 µM | HL-60 34.9 µM | IGROV-1 > 100 µM | OVCAR-5 > 100 µM | K562 44.5 µM | U-251 59.6 µM | SK-MEL-28 > 100 µM

CC(=O)OCC12CC(CC1OC(C)=O)c1ccccc12 (stereo not given)
inactive: A549 > 100 µM | MOLT-4 > 100 µM | SR > 100 µM | OVCAR-3 > 100 µM | SNB-19 > 100 µM | LOX IMVI > 100 µM | NCI-H460 > 100 µM | HL-60 > 100 µM | IGROV-1 > 100 µM | OVCAR-5 > 100 µM | K562 > 100 µM | U-251 > 100 µM | SK-MEL-28 > 100 µM

CCOC(=O)C(C(=O)c1ccccc1-c1ccccc1C(=O)O)=P(c1ccccc1)(c1ccccc1)c1ccccc1
inactive: A549 17.8 µM | MOLT-4 24.2 µM | SR 23.6 µM | OVCAR-3 25.1 µM | SNB-19 25.8 µM | LOX IMVI 20.3 µM | NCI-H460 16.5 µM | SNB-75 12.8 µM | HL-60 19.8 µM | IGROV-1 20.6 µM | K562 20 µM | U-251 18.3 µM | SK-MEL-28 18.7 µM

CCOC(=O)C(Cc1cn(S(=O)(=O)c2ccccc2)c2ccccc12)(NC(C)=O)C(=O)OCC
inactive: KM12 29.4 µM | A549 36.2 µM | MOLT-4 19 µM | SR 15.2 µM | OVCAR-3 34 µM | SNB-19 34.8 µM | NCI-H460 32.7 µM | SNB-75 8.18 µM | HL-60 16.5 µM | IGROV-1 46.7 µM | OVCAR-5 > 100 µM | K562 29 µM | U-251 40.1 µM | SK-MEL-28 42.6 µM

Source: ChEMBL document CHEMBL1201862, “PubChem BioAssay data set” (2004)
